Test results published in patent US20020035061A1, “COMPOSITIONS AND METHODS FOR TREATING INFECTIONS USING CATIONIC PEPTIDES ALONE OR IN COMBINATION WITH ANTIBIOTICS” (priority 1996, published 2002).

Test system: bacterial isolates
Test: microbe, parasite or virus in culture
Format: cell-based
Conditions: for MBI 26 + Teicoplanin: in combination with Teicoplanin

KWKSFIKKLTSAAKKVVTTAKPLISS [MBI 26] was tested, and the “MBI 26 + Teicoplanin” value (E. faecalis 97043 VanB) was 8 µg/mL, the “Peptide MIC + Vancomycin” value (E. faecalis EFS005) was 16 µg/mL and the “Peptide MIC Alone” value (E. faecalis EFS005) was greater than 128 µg/mL. The “Vancomycin MIC + Peptide” value (E. faecalis EFS005) was 4 µg/mL, the “Peptide MIC + Vancomycin” value (E. faecalis EFS012) was 1 µg/mL and the “Peptide MIC Alone” value (E. faecalis EFS012) was 16 µg/mL. The “Vancomycin MIC + Peptide” value (E. faecalis EFS012) was 2 µg/mL, the “Peptide MIC + Vancomycin” value (E. faecalis EFS013) was 1 µg/mL and the “Peptide MIC Alone” value (E. faecalis EFS013) was 16 µg/mL. For the same sequence, the “Vancomycin MIC + Peptide” value (E. faecalis EFS013) was 2 µg/mL, the “MBI 26 Alone” value (E. faecium 97001 VanB) was 64 µg/mL and the “MBI 26 + Teicoplanin” value (E. faecium 97001 VanB) was 4 µg/mL. For the same sequence, the “MBI 26 Alone” value (E. faecium 97002 VanB) was 64 µg/mL, the “MBI 26 + Teicoplanin” value (E. faecium 97002 VanB) was 1 µg/mL and the “MBI 26 Alone” value (E. faecium 97003 VanB) was 64 µg/mL. For the same sequence, the “MBI 26 + Teicoplanin” value (E. faecium 97003 VanB) was 1 µg/mL, the “MBI 26 Alone” value (E. faecium 97005 VanB) was 64 µg/mL and the “MBI 26 + Teicoplanin” value (E. faecium 97005 VanB) was 2 µg/mL. The “MBI 26 Alone” value (E. faecium 97006 VanB) was 64 µg/mL, the “MBI 26 + Teicoplanin” value (E. faecium 97006 VanB) was 4 µg/mL and the “MBI 26 Alone” value (E. faecium 97007 VanB) was 64 µg/mL. For the same sequence, the “MBI 26 + Teicoplanin” value (E. faecium 97007 VanB) was 1 µg/mL, the “MBI 26 Alone” value (E. faecium 97008 VanB) was 64 µg/mL and the “MBI 26 + Teicoplanin” value (E. faecium 97008 VanB) was 4 µg/mL. For the same sequence, the “MBI 26 Alone” value (E. faecium 97009 VanB) was 32 µg/mL, the “MBI 26 + Teicoplanin” value (E. faecium 97009 VanB) was 1 µg/mL and the “MBI 26 Alone” value (E. faecium 97010 VanB) was 64 µg/mL. The “MBI 26 + Teicoplanin” value (E. faecium 97010 VanB) was 4 µg/mL, the “MBI 26 Alone” value (E. faecium 97011 VanB) was 64 µg/mL and the “MBI 26 + Teicoplanin” value (E. faecium 97011 VanB) was 4 µg/mL. For the same sequence, the “MBI 26 Alone” value (E. faecium 97012 VanB) was 64 µg/mL, the “MBI 26 + Teicoplanin” value (E. faecium 97012 VanB) was 4 µg/mL and the “MBI 26 Alone” value (E. faecium 97013 VanB) was 64 µg/mL. The “MBI 26 + Teicoplanin” value (E. faecium 97013 VanB) was 8 µg/mL, the “MBI 26 Alone” value (E. faecium 97014 VanB) was 64 µg/mL and the “MBI 26 + Teicoplanin” value (E. faecium 97014 VanB) was 4 µg/mL. The “MBI 26 Alone” value (E. faecium 97015 VanB) was 64 µg/mL, the “MBI 26 + Teicoplanin” value (E. faecium 97015 VanB) was 4 µg/mL and the “MBI 26 Alone” value (E. faecium 97016 VanB) was 64 µg/mL. For the same sequence, the “MBI 26 + Teicoplanin” value (E. faecium 97016 VanB) was 4 µg/mL, the “Peptide MIC + Vancomycin” value (E. faecium EFM010) was 8 µg/mL and the “Peptide MIC Alone” value (E. faecium EFM010) was 32 µg/mL. The “Vancomycin MIC + Peptide” value (E. faecium EFM010) was 2 µg/mL, the “Peptide MIC + Vancomycin” value (E. faecium EFM011) was 8 µg/mL and the “Peptide MIC Alone” value (E. faecium EFM011) was 32 µg/mL. The “Vancomycin MIC + Peptide” value (E. faecium EFM011) was 2 µg/mL, the “Peptide MIC + Vancomycin” value (E. faecium EFM012) was 16 µg/mL and the “Peptide MIC Alone” value (E. faecium EFM012) was 64 µg/mL. The “Vancomycin MIC + Peptide” value (E. faecium EFM012) was 2 µg/mL, the “Peptide MIC + Vancomycin” value (E. faecium EFM014) was 8 µg/mL and the “Peptide MIC Alone” value (E. faecium EFM014) was 32 µg/mL. The “Vancomycin MIC + Peptide” value (E. faecium EFM014) was 4 µg/mL, the “Peptide MIC + Vancomycin” value (E. faecium EFM016) was 4 µg/mL and the “Peptide MIC Alone” value (E. faecium EFM016) was 8 µg/mL. For the same sequence, the “Vancomycin MIC + Peptide” value (E. faecium EFM016) was 1 µg/mL, the “Peptide MIC + Piperacillin” value (H. influenzae 1) was 8 µg/mL and the “Piperacillin MIC + Peptide” value (H. influenzae 1) was 32 µg/mL. For the same sequence, the “Peptide MIC Alone” value (H. influenzae 1, Piperacillin section) was greater than 128 µg/mL, the “Peptide MIC + Piperacillin” value (H. influenzae 2) was 2 µg/mL and the “Piperacillin MIC + Peptide” value (H. influenzae 2) was 64 µg/mL. The “Peptide MIC Alone” value (H. influenzae 2, Piperacillin section) was greater than 128 µg/mL, the “Ceftriaxone MIC + Peptide” value (K. pneumoniae KP003) was 4 µg/mL and the “Peptide MIC + Ceftriaxone” value (K. pneumoniae KP003) was 1 µg/mL. For the same sequence, the “Peptide MIC + Piperacillin” value (P. aeruginosa 7) was 32 µg/mL, the “Piperacillin MIC + Peptide” value (P. aeruginosa 7) was 32 µg/mL and the “Peptide MIC Alone” value (P. aeruginosa 7, Piperacillin section) was greater than 128 µg/mL. For the same sequence, the “Ciprofloxacin MIC + Peptide” value (P. aeruginosa 23) was 0.5 µg/mL, the “Peptide MIC + Ciprofloxacin” value (P. aeruginosa 23) was 2 µg/mL and the “Peptide MIC + Piperacillin” value (P. aeruginosa 23) was 32 µg/mL. The “Piperacillin MIC + Peptide” value (P. aeruginosa 23) was 4 µg/mL, the “Peptide MIC Alone” value (P. aeruginosa 23, Piperacillin section) was greater than 64 µg/mL and the “Ciprofloxacin MIC + Peptide” value (P. aeruginosa 24) was 0.5 µg/mL. For the same sequence, the “Peptide MIC + Ciprofloxacin” value (P. aeruginosa 24) was 2 µg/mL, the “Peptide MIC + Piperacillin” value (P. aeruginosa 28) was 32 µg/mL and the “Piperacillin MIC + Peptide” value (P. aeruginosa 28) was 16 µg/mL. The “Peptide MIC Alone” value (P. aeruginosa 28, Piperacillin section) was greater than 128 µg/mL, the “Peptide MIC + Piperacillin” value (P. aeruginosa 41) was 4 µg/mL and the “Piperacillin MIC + Peptide” value (P. aeruginosa 41) was 32 µg/mL. For the same sequence, the “Peptide MIC Alone” value (P. aeruginosa 41, Piperacillin section) was 128 µg/mL, the “Mupirocin MIC + Peptide” value (P. aeruginosa PA2) was 10 µg/mL and the “Peptide MIC + Mupirocin” value (P. aeruginosa PA2) was 64 µg/mL. The “Peptide MIC Alone” value (P. aeruginosa PA2, Mupirocin section) was 128 µg/mL, the “Mupirocin MIC + Peptide” value (P. aeruginosa PA4) was 100 µg/mL and the “Peptide MIC + Mupirocin” value (P. aeruginosa PA4) was 32 µg/mL.
